# Laboratory results taken from paper PMC3185947 (British Journal of Cancer, 2011).
# Marks after values point to notes of the source that are not given here.
# System: patients with previously treated advanced NSCLC
# Assay: Erlotinib-related toxicities (worst grade per patient), NCI CTC Version 2.0
# Assay type: in vivo, human
# [1] = erlotinib 175–200 mg (N=13), non-cutaneous dose limiting toxicity reported
# [2] = erlotinib 225–275 mg (N=18), non-cutaneous dose limiting toxicity reported
structure (smiles),measurement,setting,value
C#Cc1cccc(Nc2ncnc3cc(OCCOC)c(OCCOC)cc23)c1 [erlotinib],"Alopecia, grade 3–4",Total (N=42),0 (0) n (%)
same,"Alopecia, grade Any",Total (N=42),6 (14) n (%)
same,"Anorexia, grade 3–4",Total (N=42),1 (2) n (%)
same,"Anorexia, grade Any",Total (N=42),11 (26) n (%)
same,"Creatinine, grade 3–4",Total (N=42),1 (2) n (%)
same,"Creatinine, grade Any",Total (N=42),1 (2) n (%)
same,"Diarrhea, grade 3–4",Total (N=42),1 (2) n (%)
same,"Diarrhea, grade Any",Total (N=42),33 (79) n (%)
same,"Epistaxis, grade 3–4",Total (N=42),0 (0) n (%)
same,"Epistaxis, grade Any",Total (N=42),5 (12) n (%)
same,"Fatigue, grade 3–4",Total (N=42),3 (7) n (%)
same,"Fatigue, grade Any",Total (N=42),17 (40) n (%)
same,"Headache, grade 3–4",Total (N=42),1 (2) n (%)
same,"Headache, grade Any",Total (N=42),1 (2) n (%)
same,"Nausea, grade 3–4",Total (N=42),0 (0) n (%)
same,"Nausea, grade Any",Total (N=42),22 (52) n (%)
same,"Paronychia, grade 3–4",Total (N=42),1 (2) n (%)
same,"Paronychia, grade Any",Total (N=42),5 (12) n (%)
same,"Skin fissures, grade 3–4",Total (N=42),1 (2) n (%)
same,"Skin fissures, grade Any",Total (N=42),5 (12) n (%)
same,"Stomatitis, grade 3–4",Total (N=42),0 (0) n (%)
same,"Stomatitis, grade Any",Total (N=42),14 (33) n (%)
same,"Vomiting, grade 3–4",Total (N=42),0 (0) n (%)
same,"Vomiting, grade Any",Total (N=42),15 (36) n (%)
same,"Diarrhea, frequency",all 42 patients,79%
same,"Fatigue, frequency",all 42 patients,40%
same,"Nausea, frequency",all 42 patients,52 % of patients
same,"Stomatitis, frequency",all 42 patients,33%
same,"Vomiting, frequency",all 42 patients,36%
same,"Alopecia, grade 3–4",erlotinib 100–150 mg (N=4),0 (0) n (%)
same,"Alopecia, grade Any",erlotinib 100–150 mg (N=4),0 (0) n (%)
same,"Anorexia, grade 3–4",erlotinib 100–150 mg (N=4),0 (0) n (%)
same,"Anorexia, grade Any",erlotinib 100–150 mg (N=4),2 (50) n (%)
same,"Creatinine, grade 3–4",erlotinib 100–150 mg (N=4),0 (0) n (%)
same,"Creatinine, grade Any",erlotinib 100–150 mg (N=4),0 (0) n (%)
same,"Diarrhea, grade 3–4",erlotinib 100–150 mg (N=4),0 (0) n (%)
same,"Diarrhea, grade Any",erlotinib 100–150 mg (N=4),4 (100) n (%)
same,"Epistaxis, grade 3–4",erlotinib 100–150 mg (N=4),0 (0) n (%)
same,"Epistaxis, grade Any",erlotinib 100–150 mg (N=4),0 (0) n (%)
same,"Fatigue, grade 3–4",erlotinib 100–150 mg (N=4),0 (0) n (%)
same,"Fatigue, grade Any",erlotinib 100–150 mg (N=4),3 (75) n (%)
same,"Headache, grade 3–4",erlotinib 100–150 mg (N=4),0 (0) n (%)
same,"Headache, grade Any",erlotinib 100–150 mg (N=4),0 (0) n (%)
same,"Nausea, grade 3–4",erlotinib 100–150 mg (N=4),0 (0) n (%)
same,"Nausea, grade Any",erlotinib 100–150 mg (N=4),3 (75) n (%)
same,"Paronychia, grade 3–4",erlotinib 100–150 mg (N=4),0 (0) n (%)
same,"Paronychia, grade Any",erlotinib 100–150 mg (N=4),0 (0) n (%)
same,"Skin fissures, grade 3–4",erlotinib 100–150 mg (N=4),0 (0) n (%)
same,"Skin fissures, grade Any",erlotinib 100–150 mg (N=4),1 (25) n (%)
same,"Stomatitis, grade 3–4",erlotinib 100–150 mg (N=4),0 (0) n (%)
same,"Stomatitis, grade Any",erlotinib 100–150 mg (N=4),2 (50) n (%)
same,"Vomiting, grade 3–4",erlotinib 100–150 mg (N=4),0 (0) n (%)
same,"Vomiting, grade Any",erlotinib 100–150 mg (N=4),2 (50) n (%)
same,"Alopecia, grade 3–4",erlotinib 175–200 mg (N=13),0 (0) n (%)
same,"Alopecia, grade Any",erlotinib 175–200 mg (N=13),0 (0) n (%)
same,"Anorexia, grade 3–4",erlotinib 175–200 mg (N=13),0 (0) n (%)
same,"Anorexia, grade Any",erlotinib 175–200 mg (N=13),0 (0) n (%)
same,"Creatinine, grade Any",erlotinib 175–200 mg (N=13),1 (8) n (%)
same,"Diarrhea, grade 3–4",erlotinib 175–200 mg (N=13),0 (0) n (%)
same,"Diarrhea, grade Any",erlotinib 175–200 mg (N=13),9 (69) n (%)
same,"Epistaxis, grade 3–4",erlotinib 175–200 mg (N=13),0 (0) n (%)
same,"Epistaxis, grade Any",erlotinib 175–200 mg (N=13),0 (0) n (%)
same,"Fatigue, grade Any",erlotinib 175–200 mg (N=13),4 (31) n (%)
same,"Headache, grade 3–4",erlotinib 175–200 mg (N=13),0 (0) n (%)
same,"Headache, grade Any",erlotinib 175–200 mg (N=13),0 (0) n (%)
same,"Nausea, grade 3–4",erlotinib 175–200 mg (N=13),0 (0) n (%)
same,"Nausea, grade Any",erlotinib 175–200 mg (N=13),5 (38) n (%)
same,"Paronychia, grade 3–4",erlotinib 175–200 mg (N=13),0 (0) n (%)
same,"Paronychia, grade Any",erlotinib 175–200 mg (N=13),0 (0) n (%)
same,"Skin fissures, grade 3–4",erlotinib 175–200 mg (N=13),0 (0) n (%)
same,"Skin fissures, grade Any",erlotinib 175–200 mg (N=13),0 (0) n (%)
same,"Stomatitis, grade 3–4",erlotinib 175–200 mg (N=13),0 (0) n (%)
same,"Stomatitis, grade Any",erlotinib 175–200 mg (N=13),5 (38) n (%)
same,"Vomiting, grade 3–4",erlotinib 175–200 mg (N=13),0 (0) n (%)
same,"Vomiting, grade Any",erlotinib 175–200 mg (N=13),5 (38) n (%)
same,"Creatinine, grade 3–4",[1],1 (8) ^a n (%)
same,"Fatigue, grade 3–4",[1],1 (8) ^a n (%)
same,"Alopecia, grade 3–4",erlotinib 225–275 mg (N=18),0 (0) n (%)
same,"Alopecia, grade Any",erlotinib 225–275 mg (N=18),4 (22) n (%)
same,"Anorexia, grade Any",erlotinib 225–275 mg (N=18),6 (33) n (%)
same,"Creatinine, grade 3–4",erlotinib 225–275 mg (N=18),0 (0) n (%)
same,"Creatinine, grade Any",erlotinib 225–275 mg (N=18),0 (0) n (%)
same,"Diarrhea, grade 3–4",erlotinib 225–275 mg (N=18),1 (6) n (%)
same,"Diarrhea, grade Any",erlotinib 225–275 mg (N=18),13 (72) n (%)
same,"Epistaxis, grade 3–4",erlotinib 225–275 mg (N=18),0 (0) n (%)
same,"Epistaxis, grade Any",erlotinib 225–275 mg (N=18),3 (17) n (%)
same,"Fatigue, grade Any",erlotinib 225–275 mg (N=18),6 (33) n (%)
same,"Headache, grade Any",erlotinib 225–275 mg (N=18),1 (6) n (%)
same,"Nausea, grade 3–4",erlotinib 225–275 mg (N=18),0 (0) n (%)
same,"Nausea, grade Any",erlotinib 225–275 mg (N=18),9 (50) n (%)
same,"Paronychia, grade 3–4",erlotinib 225–275 mg (N=18),0 (0) n (%)
same,"Paronychia, grade Any",erlotinib 225–275 mg (N=18),3 (17) n (%)
same,"Skin fissures, grade 3–4",erlotinib 225–275 mg (N=18),1 (6) n (%)
same,"Skin fissures, grade Any",erlotinib 225–275 mg (N=18),2 (11) n (%)
same,"Stomatitis, grade 3–4",erlotinib 225–275 mg (N=18),0 (0) n (%)
same,"Stomatitis, grade Any",erlotinib 225–275 mg (N=18),6 (33) n (%)
same,"Vomiting, grade 3–4",erlotinib 225–275 mg (N=18),0 (0) n (%)
same,"Vomiting, grade Any",erlotinib 225–275 mg (N=18),5 (28) n (%)
same,"Anorexia, grade 3–4",[2],1 (6) ^a n (%)
same,"Fatigue, grade 3–4",[2],2 (11) ^a n (%)
same,"Headache, grade 3–4",[2],1 (6) ^a n (%)
same,"Alopecia, grade 3–4",erlotinib ⩾300 mg (N=7),0 (0) n (%)
same,"Alopecia, grade Any",erlotinib ⩾300 mg (N=7),2 (29) n (%)
same,"Anorexia, grade 3–4",erlotinib ⩾300 mg (N=7),0 (0) n (%)
same,"Anorexia, grade Any",erlotinib ⩾300 mg (N=7),3 (43) n (%)
same,"Creatinine, grade 3–4",erlotinib ⩾300 mg (N=7),0 (0) n (%)
same,"Creatinine, grade Any",erlotinib ⩾300 mg (N=7),0 (0) n (%)
same,"Diarrhea, grade 3–4",erlotinib ⩾300 mg (N=7),0 (0) n (%)
same,"Diarrhea, grade Any",erlotinib ⩾300 mg (N=7),7 (100) n (%)
same,"Epistaxis, grade 3–4",erlotinib ⩾300 mg (N=7),0 (0) n (%)
same,"Epistaxis, grade Any",erlotinib ⩾300 mg (N=7),2 (29) n (%)
same,"Fatigue, grade 3–4",erlotinib ⩾300 mg (N=7),0 (0) n (%)
same,"Fatigue, grade Any",erlotinib ⩾300 mg (N=7),4 (57) n (%)
same,"Headache, grade 3–4",erlotinib ⩾300 mg (N=7),0 (0) n (%)
same,"Headache, grade Any",erlotinib ⩾300 mg (N=7),0 (0) n (%)
same,"Nausea, grade 3–4",erlotinib ⩾300 mg (N=7),0 (0) n (%)
same,"Nausea, grade Any",erlotinib ⩾300 mg (N=7),5 (71) n (%)
same,"Paronychia, grade Any",erlotinib ⩾300 mg (N=7),2 (29) n (%)
same,"Skin fissures, grade 3–4",erlotinib ⩾300 mg (N=7),0 (0) n (%)
same,"Skin fissures, grade Any",erlotinib ⩾300 mg (N=7),2 (29) n (%)
same,"Stomatitis, grade 3–4",erlotinib ⩾300 mg (N=7),0 (0) n (%)
same,"Stomatitis, grade Any",erlotinib ⩾300 mg (N=7),1 (14) n (%)
same,"Vomiting, grade 3–4",erlotinib ⩾300 mg (N=7),0 (0) n (%)
same,"Vomiting, grade Any",erlotinib ⩾300 mg (N=7),3 (43) n (%)
same,"Paronychia, grade 3–4","erlotinib ⩾300 mg (N=7), non-cutaneous dose limiting toxicity reported",1 (14) ^a n (%)
same,Non-cutaneous DLT: grade 3 anorexia,"human, in vivo",one
same,Non-cutaneous DLT: grade 3 creatinine elevation,"human, in vivo",one
same,Non-cutaneous DLT: grade 3 fatigue,"human, in vivo",three
same,Non-cutaneous DLT: grade 3 headache,"human, in vivo",one
same,Non-cutaneous DLT: grade 3 paronychia,"human, in vivo",one
same,Patients who discontinued treatment due to protracted grade 3 anorexia and grade 2 nausea,"human, in vivo",One
same,Patients who experienced non-cutaneous DLT,of 42 patients,Seven
